Data reported in patent US20120309676A1, “Lantibiotic Salts” (priority 2010, published 2012).
Structures can show the parent of a compound that is named as a salt.

Legend:
[1] = tested on: Vancomycin sensitive enterococci, E. faecium; test: MIC susceptibility testing, vancomycin sensitive enterococci (E. faecium); assay type: cell-based
Experimental: (§1) Susceptibility testing with the exception of Streptococcus pneumoniae was performed by two-fold serial dilutions in Mueller Hinton Broth supplemented with 50 μg/mL Ca^2+. Susceptibility testing of S. pneumoniae was performed by two-fold serial dilutions in Brain-Heart-Infusion Broth supplemented with 50 μg/mL Ca^2+.
(§2) Modal values from up to 6 determinations

[2] = tested on: Vancomycin resistant enterococci, E. faecalis; test: MIC susceptibility testing, vancomycin resistant enterococci (E. faecalis); assay type: cell-based
Experimental: as §1, §2

S. pyogenes = test: MIC susceptibility testing, S. pyogenes; assay type: cell-based
Experimental: as §1, §2

[3] = tested on: Staphylococcus aureus methicillin resistant ATCC 33591; test: Mouse bacteraemia model, second experiment, IV dosing; assay type: in vivo; conditions: for number of deaths: after 7 days, groups of 6 mice
Experimental: In a second experiment Groups of 6 male CD-1 (Crl.) derived mice weighing 24±2 g were used. Mice were inoculated intraperitoneally (IP) with an LD90-100 of Staphylococcus aureus methicillin resistant ATCC 33591 (1.35×10^8 CFU/mouse) in 0.5 mL of BHI broth containing 5% mucin. Example 1 was dissolved in 5% dextrose/1.5 mM potassium phosphate, pH 5.0 and doses of 1, 3, 5 and 10 mg/Kg were administered intravenously (IV) to test animals at 1 and 13 hour(s) after bacteria challenge. The dosing volume was 5 mL/Kg. Mortality was recorded once daily for 7 days.

[4] = tested on: Methicillin Resistant Staphylococcus aureus (MRSA, ATCC 33591); test: Neutropaenic mouse thigh infection model, further experiment; assay type: in vivo; conditions: IV 2 and 14 h after infection, 2.5-50 mg/Kg, FIG. 3
Experimental: In a further experiment, groups of 6 male ICR mice weighing 24±2 g were used. Test animals were immunosuppressed by 2 intraperitoneal injections of cyclophosphamide, the first at 150 mg/Kg 4 days before infection (day-4) and the second at 100 mg/Kg 1 day before infection (day-1). On day 0, individual animals were inoculated intramuscularly (IM) into the right thigh of test animals with 1.5×10^5 CFU/mouse of Methicillin Resistant Staphylococcus aureus (MRSA, ATCC 33591) suspended in 100 μL of sterile PBS, pH 7.4. Vehicle and test substances were administered intravenously (IV) at a dose volume of 8 mL/Kg, 2 and 14 hours after thigh infection. Example 1 was dissolved in 5% dextrose/1 mM potassium phosphate, pH 5.0 and administered at doses of 2.5, 5, 10, 15, 25 and 50 mg/Kg. At 26 hours after inoculation, muscle of the right thigh of each test mouse was harvested. From an additional group with no treatment, muscle of the right thigh was harvested at 2 hours after inoculation for the basal CFU determination. The removed muscle tissues were then homogenized in 3-4 mL of PBS, pH 7.4 with a ceramic mortar. Homogenates of 0.1 mL were used for serial 10-fold dilutions and plated on Mueller Hinton broth in 1.5% Bacto agar for CFU determination.

MSSA = test: MIC susceptibility testing, MSSA; assay type: cell-based, Staphylococcus aureus
Experimental: as §1, §2

[5] = tested on: Vancomycin resistant enterococci, E. faecium; test: MIC susceptibility testing, vancomycin resistant enterococci (E. faecium); assay type: cell-based
Experimental: as §1, §2

[6] = tested on: Vancomycin-intermediate Staphylococcus aureus; test: MIC susceptibility testing, vancomycin-intermediate Staphylococcus aureus; assay type: cell-based
Experimental: as §1, §2

[7] = tested on: Methicillin Resistant Staphylococcus aureus (MRSA, ATCC 33591); test: Neutropaenic mouse thigh infection model; assay type: in vivo
Experimental: In vivo efficacy of compounds of the present invention in the treatment of bacterial tissue infections was evaluated using a neutropaenic mouse thigh model.
Groups of 6 male ICR mice weighing 24±2 g were used. Test animals were immunosuppressed by 2 intraperitoneal injections of cyclophosphamide, the first at 150 mg/Kg 4 days before infection (day-4) and the second at 100 mg/Kg 1 day before infection (day-1). On day 0, individual animals were inoculated intramuscularly (IM) into the right thigh of test animals with 1.15×10^8 CFU/mouse of Methicillin Resistant Staphylococcus aureus (MRSA, ATCC 33591) suspended in 100 μL of sterile PBS, pH 7.4. Vehicle and test substances were administered intravenously (IV) at a dose volume of 6 mL/Kg, 2 and 14 hours after thigh infection. Example 1 and vancomycin were dissolved in 15% hydroxypropyl-β-cyclodextrin/4.4% glucose/1.5 mM potassium phosphate buffer, pH 7.0 and administered at doses of 5, 10, 20, 30 and 40 mg/Kg. At 26 hours after inoculation, muscle of the right thigh of each test mouse was harvested. From an additional group with no treatment, muscle of the right thigh was harvested at 2 hours after inoculation for the basal CFU determination. The removed muscle tissues were then homogenized in 3-4 mL of PBS, pH 7.4 with a ceramic mortar. Homogenates of 0.1 mL were used for serial 10-fold dilutions and plated on Mueller Hinton broth in 1.5% Bacto agar for CFU determination. […] Results (mean cfu/g) are graphically represented in FIG. 2.

CC[C@H](C)[C@@H]1NC(=O)[C@@H]2NC(=O)[C@H](CC(C)C)NC(=O)[C@H](NC(=O)[C@@H]3CSC[C@@H](N)C(=O)N[C@@H](CO)C(=O)NCC(=O)N[C@@H](Cc4c[nH]c5ccccc45)C(=O)N[C@@H](C(C)C)C(=O)N3)[C@H](C)SC[C@H](NC(=O)[C@H](CCC(=O)O)NC1=O)C(=O)NCC(=O)N[C@H]1C(=O)N[C@@H](CC(C)C)C(=O)N[C@@H](C(C)C)C(=O)N[C@@H](CS[C@H]2C)C(=O)N[C@@H](C)C(=O)N[C@H](C(=O)NCc2cc(Cl)cc(Cl)c2)CS[C@H]1C [Example 1, Deoxyactagardine B (3,5-dichlorobenzylamine) monocarboxamide N-methyl glucamine salt]
MIC ([1]; E. faecium 19579): 4 µg/mL
MIC ([1]; E. faecium 7754422): <8 µg/mL
MIC ([1]; E. faecium 7865229): 16 µg/mL
MIC ([2]; E. faecalis 9758512): 8 µg/mL
MIC ([2]; E. faecalis GRL05031): 2 to 4 µg/mL
MIC ([2]; E. faecalis GRL05032): 8 µg/mL
MIC ([2]; E. faecalis GRL05033): 8 µg/mL
MIC ([2]; E. faecalis GRL05034): 4 µg/mL
MIC ([2]; E. faecalis GRL05035): 8 µg/mL
MIC (S. pyogenes; S. pyogenes 7713283): 0.06 µg/mL
MIC (S. pyogenes; S. pyogenes 7755255): <2 µg/mL
MIC (S. pyogenes; S. pyogenes 7755441): 0.06 µg/mL
MIC (S. pyogenes; S. pyogenes 7755584): 0.06 to 0.125 µg/mL
MIC (S. pyogenes; S. pyogenes 7757080): <1 µg/mL
MIC (S. pyogenes; S. pyogenes 7865253): 0.06 µg/mL
MIC (S. pyogenes; S. pyogenes 7865289): 0.06 µg/mL
MIC (S. pyogenes; S. pyogenes 7865844): 8 µg/mL
MIC (S. pyogenes; S. pyogenes GRL05041): <1 µg/mL
MIC (S. pyogenes; S. pyogenes GRL05042): 0.06 µg/mL
MIC (S. pyogenes; S. pyogenes GRL05043): <8 µg/mL
MIC (S. pyogenes; S. pyogenes GRL05045): <4 µg/mL
MIC (S. pyogenes; S. pyogenes GRL05046): 0.06 µg/mL
number of deaths ([3]; 1 mg/kg IV at 1 and 13 h after challenge): 5
number of deaths ([3]; 3 mg/kg IV at 1 and 13 h after challenge): 4
number of deaths ([3]; 5 mg/kg IV at 1 and 13 h after challenge): 1
number of deaths ([3]; 10 mg/kg IV at 1 and 13 h after challenge): 1
survival of mice after 7 days ([3]; 1, 3, 5 and 10 mg/kg): dose-dependent incease in survival
bacterial counts in the thigh tissue [4]: dose dependent reduction
MIC (MSSA; S. aureus 8325-4): 4 µg/mL
MIC (MSSA; S. aureus G12): 4 µg/mL
MIC (MSSA; S. aureus G15): 4 µg/mL
MIC (MSSA; S. aureus G20): 4 µg/mL
MIC (MSSA; S. aureus G22): 4 µg/mL
MIC (MSSA; S. aureus G23): 4 µg/mL
MIC (MSSA; S. aureus G26): 4 µg/mL
MIC (MSSA; S. aureus G28): 4 µg/mL
MIC (MSSA; S. aureus G29): 4 µg/mL
MIC (MSSA; S. aureus G30): 4 µg/mL
MIC (MSSA; S. aureus G31): 4 µg/mL
MIC (MSSA; S. aureus G32): 4 µg/mL
MIC (MSSA; S. aureus G33): 4 µg/mL
MIC (MSSA; S. aureus G35): 4 µg/mL
MIC (MSSA; S. aureus SH1000): 4 to 8 µg/mL
MIC ([5]; E. faecium 7634337): 16 µg/mL
MIC ([5]; E. faecium 7662769): <16 µg/mL
MIC ([5]; E. faecium 7860190): 4 to 8 µg/mL
MIC ([5]; E. faecium 7865532): 16 µg/mL
MIC ([5]; E. faecium 9704998): 8 µg/mL
MIC ([5]; E. faecium 9709024): <16 µg/mL
MIC ([5]; E. faecium 9710577): 16 µg/mL
MIC ([6]; S. aureus 2): 4 µg/mL
MIC ([6]; S. aureus 26): 4 µg/mL
MIC ([6]; S. aureus MI): 16 µg/mL
MIC ([6]; S. aureus Mu3): 8 µg/mL
MIC ([6]; S. aureus Mu50): 4 µg/mL
MIC ([6]; S. aureus NJ): 8 µg/mL
MIC ([6]; S. aureus V99): 4 µg/mL
antimicrobial effect ([7]; IV at 5, 10, 20, 30 and 40 mg/Kg×2, 2 and 14 h after thigh infection, harvest at 26 h): significant antimicrobial effect
reduction in CFU/g ([7]; at 10 mg/kg and above, IV ×2, thigh muscle at 26 h): > 1000 fold
